The record followed here is US10479780B2, “Aminopyrazole derivatives” (Chugai Seiyaku Kabushiki Kaisha, priority 2015, dated 2019).

What all share (format): biochemical
One assay concerns the target T1, human Lck enzyme (Homo sapiens, UniProt P06239).
T1 construct: purchased Carna Biosciences, Inc. 08-170
The assay is described as follows: Lck enzyme inhibitory activity (time-resolved fluorometry, biotinylated peptide phosphorylation). The settings on record: read-out: LCK_IC50. The method in brief: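 Readout pairs a europium cryptate-labelled anti-phosphotyrosine antibody with XL665-streptavidin, measured by time-resolved fluorescence. IC50 derived from percent inhibition against untreated controls.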

In a further assay the target is T2, human Yes1 enzyme (Homo sapiens, UniProt P07947).
T2 construct: made in house
T2 sequence (P07947 whole entry): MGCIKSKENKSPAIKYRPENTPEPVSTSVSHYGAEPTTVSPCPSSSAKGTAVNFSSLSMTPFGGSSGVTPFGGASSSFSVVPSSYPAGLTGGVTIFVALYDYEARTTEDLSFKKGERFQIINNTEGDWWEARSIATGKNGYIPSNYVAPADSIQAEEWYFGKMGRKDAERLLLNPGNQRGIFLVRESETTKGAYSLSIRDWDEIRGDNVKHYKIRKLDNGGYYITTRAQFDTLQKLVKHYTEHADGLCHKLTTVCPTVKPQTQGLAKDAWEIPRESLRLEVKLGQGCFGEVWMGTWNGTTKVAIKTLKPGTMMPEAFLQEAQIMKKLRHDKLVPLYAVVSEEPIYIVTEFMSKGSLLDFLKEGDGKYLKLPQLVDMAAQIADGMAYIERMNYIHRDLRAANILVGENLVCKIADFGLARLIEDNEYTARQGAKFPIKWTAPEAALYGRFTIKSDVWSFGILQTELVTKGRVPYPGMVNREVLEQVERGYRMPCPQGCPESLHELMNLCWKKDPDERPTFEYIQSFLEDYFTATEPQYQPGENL
The assay is described as follows: Yes1 enzyme inhibitory activity (time-resolved fluorometry, biotinylated peptide phosphorylation). The settings on record: read-out: YES_IC50. The method in brief: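 Inhibition was expressed against a compound-free control to give IC50, using TR-FRET read-out (Eu-cryptate anti-pTyr antibody, streptavidin-XL665).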

For a further assay, the target named is T3, human Src enzyme (Homo sapiens, UniProt P12931).
T3 construct: purchased Carna Biosciences, Inc. 08-173
T3 sequence (P12931 whole entry): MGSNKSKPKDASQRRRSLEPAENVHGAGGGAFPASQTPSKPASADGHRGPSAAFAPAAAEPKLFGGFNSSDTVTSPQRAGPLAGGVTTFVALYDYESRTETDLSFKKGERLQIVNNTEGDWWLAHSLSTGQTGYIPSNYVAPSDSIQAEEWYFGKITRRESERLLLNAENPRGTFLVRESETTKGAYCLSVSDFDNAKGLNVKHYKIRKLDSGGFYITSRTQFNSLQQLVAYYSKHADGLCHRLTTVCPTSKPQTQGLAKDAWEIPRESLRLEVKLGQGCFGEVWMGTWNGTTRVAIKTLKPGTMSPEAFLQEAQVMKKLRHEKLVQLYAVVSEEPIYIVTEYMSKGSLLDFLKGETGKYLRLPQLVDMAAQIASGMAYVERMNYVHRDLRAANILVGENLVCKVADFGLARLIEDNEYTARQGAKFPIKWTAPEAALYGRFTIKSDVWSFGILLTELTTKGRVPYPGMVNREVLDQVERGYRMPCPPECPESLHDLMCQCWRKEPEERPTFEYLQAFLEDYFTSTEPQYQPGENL
The assay is described as follows: Src enzyme inhibitory activity (time-resolved fluorometry, biotinylated peptide phosphorylation). Conditions: read-out: SRC_IC50. The method in brief: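 Compounds were tested for blocking tyrosine phosphorylation of a biotinylated peptide substrate by recombinant human Src. Phosphorylated product was quantified by time-resolved fluorometry using europium cryptate and XL665 conjugates, and IC50 was calculated against the compound-free control.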

Setting [1] is: biotinylated peptide phosphorylation.

Read-outs that look alike come from different tables or passages of the source.

T1 sequence (P06239 whole entry): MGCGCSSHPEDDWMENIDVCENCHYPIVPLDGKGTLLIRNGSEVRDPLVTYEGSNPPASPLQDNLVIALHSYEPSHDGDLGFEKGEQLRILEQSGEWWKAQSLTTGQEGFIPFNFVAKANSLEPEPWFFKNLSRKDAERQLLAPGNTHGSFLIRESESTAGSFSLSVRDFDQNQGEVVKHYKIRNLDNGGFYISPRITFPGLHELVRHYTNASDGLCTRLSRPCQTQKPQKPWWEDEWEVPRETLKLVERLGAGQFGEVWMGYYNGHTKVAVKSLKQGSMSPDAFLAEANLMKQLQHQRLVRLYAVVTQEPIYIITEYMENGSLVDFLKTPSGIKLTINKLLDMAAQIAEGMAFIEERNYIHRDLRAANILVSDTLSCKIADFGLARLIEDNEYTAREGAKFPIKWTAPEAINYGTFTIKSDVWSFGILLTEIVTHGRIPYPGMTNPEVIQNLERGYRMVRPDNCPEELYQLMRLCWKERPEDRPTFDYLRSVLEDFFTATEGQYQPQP

On to `Cc1cc(-n2ncc(C(=O)c3cc4cc(OC5CCN(C(C)C)CC5)c(N5CCOC5=O)cc4[nH]3)c2N)ccc1Oc1ccccc1F` [Example 5-1-178, 3-(2-(5-amino-1-(4-(2-fluorophenoxy)-3-methylphenyl)-1H-pyrazole-4-carbonyl)-5-((1-isopropylpiperidin-4-yl)oxy)-1H-indol-6-yl)oxazolidin-2-one], for which the IC50 at human Lck enzyme was found to be 3.4 nM; on human Yes1 enzyme, 0.37 nM; at human Src enzyme it was 48 nM.
`Cc1cc(Oc2ccccc2F)ccc1-n1ncc(C(=O)c2cc3cc(F)c(NS(=O)(=O)C4(CC(O)CO)CC4)cc3[nH]2)c1N` (stereo not drawn) [Example 4-8-001, N-{2-{5-amino-1-[4-(2-fluorophenoxy)-2-methylphenyl]pyrazole-4-carbonyl}-5-fluoro-1H-indol-6-yl}-1-(2,3-dihydroxypropyl)cyclopropane-1-sulfonamide]: the IC50 at human Lck enzyme (setting [1]) was 14 nM; on human Yes1 enzyme (setting [1]), 1.1 nM; at human Src enzyme (setting [1]), 31 nM.
`Cc1cc2cc(C(=O)c3cnn(-c4cnc(Oc5cccc(Cl)c5)cc4C)c3N)[nH]c2cc1NS(C)(=O)=O` [Example 4-2-066, N-[2-[5-amino-1-[6-(3-chlorophenoxy)-4-methylpyridin-3-yl]pyrazole-4-carbonyl]-5-methyl-1H-indol-6-yl]methanesulfonamide]: the IC50 on human Lck enzyme (setting [1]) came out at 36 nM; on human Yes1 enzyme (setting [1]) it was 9.4 nM; on human Src enzyme (setting [1]), 160 nM.
For the compound `Cc1cc2cc(C(=O)c3cnn(-c4cnc(Oc5ccccc5F)cc4C)c3N)[nH]c2cc1NS(=O)(=O)NC1CCOCC1` [Example 5-1-057, [5-amino-1-[6-(2-fluorophenoxy)-4-methylpyridin-3-yl]pyrazol-4-yl]-[5-methyl-6-(oxan-4-ylsulfamoylamino)-1H-indol-2-yl] methanone], the results for the IC50 on human Lck enzyme, at human Yes1 enzyme and at human Src enzyme were 31 nM, 2 nM and 150 nM, respectively.
As for `Cc1cc2cc(C(=O)c3cnn(-c4ccc(Oc5ccccc5F)cc4C)c3N)[nH]c2cc1N1C(=O)NC2(CC2)C1=O` [Example 5-1-372, 6-[2-[5-amino-1-[4-(2-fluorophenoxy)-2-methylphenyl]pyrazole-4-carbonyl]-5-methyl-1H-indol-6-yl]-4,6-diazaspiro[2.4]heptane-5,7-dione], the IC50 on human Lck enzyme was found to be 6.1 nM; on human Yes1 enzyme it was 1.3 nM; on human Src enzyme, 16 nM.
As for `Cc1cc(Oc2cc(F)cc(F)c2)nc(C)c1-n1ncc(C(=O)c2cc3cc(F)c(NS(C)(=O)=O)cc3[nH]2)c1N` [Example 5-1-054, N-[2-[5-amino-1-[6-(3,5-difluorophenoxy)-2,4-dimethylpyridin-3-yl]pyrazole-4-carbonyl]-5-fluoro-1H-indol-6-yl]methanesulfonamide], the IC50 at human Lck enzyme is 350 nM; on human Yes1 enzyme it was 150 nM; at human Src enzyme, 1000 nM.
Take `Cc1cc(Oc2c(F)cccc2F)ncc1-n1ncc(C(=O)c2cc3cc(OCC(F)F)c(N4C(=O)C(C)(C)NC4=S)cc3[nH]2)c1N` [Example 4-23-036, 3-{2-{5-amino-1-[6-(2,6-difluorophenoxy)-4-methylpyridin-3-yl]pyrazole-4-carbonyl}-5-(2,2-difluoroethoxy)-1H-indol-6-yl}-5,5-dimethyl-2-sulfanylideneimidazolidin-4-one]: the IC50 came to 6.4 nM on human Lck enzyme (setting [1]), 1 nM on human Yes1 enzyme (setting [1]) and 31 nM at human Src enzyme (setting [1]).
On to `Cc1cc(Oc2c(F)cccc2F)ncc1-n1ncc(C(=O)c2cc3cc(OCC(F)F)c(N4C(=O)NC5(CCNCC5)C4=O)cc3[nH]2)c1N` [Example 5-1-332, 3-[2-[5-amino-1-[6-(2,6-difluorophenoxy)-4-methylpyridin-3-yl]pyrazole-4-carbonyl]-5-(2,2-difluoroethoxy)-1H-indol-6-yl]-1,3,8-triazaspiro[4.5]decane-2,4-dione], for which the IC50 on human Lck enzyme came to 2.5 nM; on human Yes1 enzyme, 0.79 nM; at human Src enzyme, 12 nM.
`Nc1c(C(=O)c2cc3cc(F)c(NS(=O)(=O)CCCF)cc3[nH]2)cnn1-c1ccc(Oc2ncccc2Cl)cc1F` [Example 5-1-036, N-[2-[5-amino-1-[4-(3-chloropyridin-2-yl)oxy-2-fluorophenyl]pyrazole-4-carbonyl]-5-fluoro-1H-indol-6-yl]-3-fluoropropane-1-sulfonamide]: the figures for the IC50 on human Lck enzyme, at human Yes1 enzyme and at human Src enzyme were 65 nM, 1.5 nM and 140 nM, respectively.
With `Cc1cc(Oc2ccccc2F)ncc1-n1ncc(C(=O)c2cc3cc(OC(F)F)c(N4CCC(N5CCOCC5)CC4)cc3[nH]2)c1N` [Example 4-25-030, [5-amino-1-[6-(2-fluorophenoxy)-4-methylpyridin-3-yl]pyrazol-4-yl]-[5-(difluoromethoxy)-6-(4-morpholin-4-ylpiperidin-1-yl)-1H-indol-2-yl]methanone], the IC50 came to 9.1 nM on human Lck enzyme (setting [1]), 2.6 nM at human Yes1 enzyme (setting [1]) and 38 nM on human Src enzyme (setting [1]).
In the case of `Cc1cc2cc(C(=O)c3cnn(-c4cnc(Oc5c(F)cccc5F)cc4C)c3N)[nH]c2cc1N1C(=O)[C@@H]2CCCN2C1=O` [Example 5-1-454, (7aS)-2-[2-[5-amino-1-[6-(2,6-difluorophenoxy)-4-methylpyridin-3-yl]pyrazole-4-carbonyl]-5-methyl-1H-indol-6-yl]-5,6,7,7a-tetrahydropyrrolo[1,2-c]imidazole-1,3-dione], the IC50 was 5.1 nM at human Lck enzyme (setting [1]), 1.7 nM at human Yes1 enzyme (setting [1]) and 40 nM at human Src enzyme (setting [1]).
Consider `Cc1cc(Oc2c(F)cccc2F)ncc1-n1ncc(C(=O)c2cc3cc(OCC(F)F)c(N4CCC(N5CCOCC5)CC4)cc3[nH]2)c1N` [Example 4-25-027, [5-amino-1-[6-(2,6-difluorophenoxy)-4-methylpyridin-3-yl]pyrazol-4-yl]-[5-(2,2-difluoroethoxy)-6-(4-morpholin-4-ylpiperidin-1-yl)-1H-indol-2-yl]methanone], for which the IC50 amounted to 2.1 nM at human Lck enzyme (setting [1]), 0.8 nM on human Yes1 enzyme (setting [1]) and 23 nM on human Src enzyme (setting [1]).
Turning to `Cc1cc(Oc2ccccc2F)ccc1-n1ncc(C(=O)c2cc3cc(F)c(NS(=O)(=O)C4CCOCC4)cc3[nH]2)c1N` [Example 5-1-389, N-[2-[5-amino-1-[4-(2-fluorophenoxy)-2-methylphenyl]pyrazole-4-carbonyl]-5-fluoro-1H-indol-6-yl]oxane-4-sulfonamide], the IC50 at human Lck enzyme was determined as 18 nM; on human Yes1 enzyme it was 1.4 nM; at human Src enzyme, 24 nM.
In the case of `Cc1cc2cc(C(=O)c3cnn(-c4ccc(Oc5ccccc5F)c(F)c4)c3N)[nH]c2cc1NS(C)(=O)=O` [Example 5-1-198, N-[2-[5-amino-1-[3-fluoro-4-(2-fluorophenoxy)phenyl]pyrazole-4-carbonyl]-5-methyl-1H-indol-6-yl]methanesulfonamide], the IC50 at human Lck enzyme worked out at 36 nM; at human Yes1 enzyme, 1.5 nM; on human Src enzyme it was 270 nM.
For the compound `Cc1ccccc1-c1cc2[nH]c(C(=O)c3cnn(-c4cnc(Oc5c(F)cccc5F)cc4C)c3N)cc2cc1OC1CCN(C2CCCC2)CC1` [Example 5-1-337, [5-amino-1-[6-(2,6-difluorophenoxy)-4-methylpyridin-3-yl]pyrazol-4-yl]-[5-(1-cyclopentylpiperidin-4-yl)oxy-6-(2-methylphenyl)-1H-indol-2-yl]methanone], the figures for the IC50 on human Lck enzyme, on human Yes1 enzyme and at human Src enzyme were 18 nM, 2.3 nM and 120 nM, respectively.
Consider `Cc1cc(-n2ncc(C(=O)c3cc4cc(OC5CCN(C6CCCC6)CC5)c(-c5ccccc5C)cc4[nH]3)c2N)ccc1Oc1ccccc1F` [Example 5-1-335, [5-amino-1-[4-(2-fluorophenoxy)-3-methylphenyl]pyrazol-4-yl]-[5-(1-cyclopentylpiperidin-4-yl)oxy-6-(2-methylphenyl)-1H-indol-2-yl]methanone], for which the values for the IC50 on human Lck enzyme, on human Yes1 enzyme and at human Src enzyme were 120 nM, 2.7 nM and 1700 nM, respectively.
In the case of `Cc1cc(-n2ncc(C(=O)c3cc4cc(OC5CCN(C(C)C)CC5)c(Cl)cc4[nH]3)c2N)ccc1Oc1cccc(F)c1` [Example 5-1-209, [5-amino-1-[4-(3-fluorophenoxy)-3-methylphenyl]pyrazol-4-yl]-[6-chloro-5-(1-propan-2-ylpiperidin-4-yl)oxy-1H-indol-2-yl] methanone], the results for the IC50 at human Lck enzyme, on human Yes1 enzyme and on human Src enzyme were 98 nM, 4.4 nM and 420 nM, respectively.
Consider `Cc1cc(Oc2ccccc2F)ncc1-n1ncc(C(=O)c2cc3cc(OCC(F)F)c(NS(=O)(=O)c4cccc(Cl)c4)cc3[nH]2)c1N` [Example 5-1-424, N-[2-[5-amino-1-[6-(2-fluorophenoxy)-4-methylpyridin-3-yl]pyrazole-4-carbonyl]-5-(2,2-difluoroethoxy)-1H-indol-6-yl]-3-chlorobenzenesulfonamide], for which the IC50 at human Lck enzyme (setting [1]) came out at 200 nM; at human Yes1 enzyme (setting [1]), 5.6 nM; at human Src enzyme (setting [1]), 480 nM.
With `Cc1cc(Oc2c(F)cccc2F)ncc1-n1ncc(C(=O)c2cc3cc(OC4CCN(C(C)C)CC4)c(N4CCC(N5CCOCC5)CC4)cc3[nH]2)c1N` [Example 5-1-201, [5-amino-1-[6-(2,6-difluorophenoxy)-4-methylpyridin-3-yl]pyrazol-4-yl]-[6-(4-morpholin-4-ylpiperidin-1-yl)-5-(1-propan-2-ylpiperidin-4-yl)oxy-1H-indol-2-yl]methanone], the results for the IC50 on human Lck enzyme, on human Yes1 enzyme and on human Src enzyme were 3.2 nM, 0.25 nM and 3.5 nM, respectively.
